Literature values, collected in patent US20240358791A1, “PEPTIDES AND METHODS OF TREATING DYSTROPHY-RELATED DISORDERS USING THE SAME” (Prince Biotech, LLC, priority 2017, published 2024).

Details: IV infusion with radiation; xerostomia treatment (Kouvaria et al 2007)

In the case of `NCCCNCCSP(=O)(O)O` [Amifostine], the side effects is listed as “serious side effects including fatal skin reaction”.
